{
  "source": "BindingDB's records for doi:10.1016/j.bmc.2019.115207",
  "about": "(Tokyo Institute of Innovative Research, 2020)",
  "biological_target": "Hypoxia-inducible factor 1-alpha (Homo sapiens, UniProt Q16665)",
  "sequence (Q16665 whole entry)": "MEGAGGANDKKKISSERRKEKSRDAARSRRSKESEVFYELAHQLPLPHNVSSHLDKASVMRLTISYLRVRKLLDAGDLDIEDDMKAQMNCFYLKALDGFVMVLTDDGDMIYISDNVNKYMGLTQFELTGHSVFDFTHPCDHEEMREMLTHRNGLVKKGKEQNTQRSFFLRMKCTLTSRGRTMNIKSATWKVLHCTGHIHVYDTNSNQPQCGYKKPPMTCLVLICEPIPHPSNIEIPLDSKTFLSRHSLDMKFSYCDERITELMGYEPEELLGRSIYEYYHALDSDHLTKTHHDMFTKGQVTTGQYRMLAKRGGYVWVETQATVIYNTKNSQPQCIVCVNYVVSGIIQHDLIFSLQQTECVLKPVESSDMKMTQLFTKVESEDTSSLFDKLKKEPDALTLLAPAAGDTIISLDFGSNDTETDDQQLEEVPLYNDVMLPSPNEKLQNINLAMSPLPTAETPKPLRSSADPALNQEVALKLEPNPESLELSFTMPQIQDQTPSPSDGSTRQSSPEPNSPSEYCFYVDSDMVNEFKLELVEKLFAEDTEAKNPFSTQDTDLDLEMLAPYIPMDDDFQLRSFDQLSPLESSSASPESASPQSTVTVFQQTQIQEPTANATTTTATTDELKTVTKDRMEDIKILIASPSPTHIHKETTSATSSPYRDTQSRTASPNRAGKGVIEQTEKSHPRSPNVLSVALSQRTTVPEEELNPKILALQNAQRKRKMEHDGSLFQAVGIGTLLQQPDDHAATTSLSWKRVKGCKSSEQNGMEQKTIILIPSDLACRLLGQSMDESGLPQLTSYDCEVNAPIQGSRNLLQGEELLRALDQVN",
  "test": "Inhibition of HIF1alpha transcriptional activity in human HeLa cells transfected with HRE-firefly luciferase and cytomegalovirus-promoter expressing Renilla luciferase incubated for 12 hrs under 1% O2 condition by dual luciferase reporter gene assay",
  "data": [
    {"molecule": "COc1ccc(-n2ncc3c2C(=O)c2ccccc2-3)cc1", "values": [
      {"measurement": "IC50", "value": 0.61, "unit": "µM"}
    ]},
    {"molecule": "O=C1c2ncccc2-c2cnn(-c3ccccc3)c21", "values": [
      {"measurement": "IC50", "value": 10, "unit": "µM"}
    ]},
    {"molecule": "Cc1ccc(-n2ncc3c2C(=O)c2ccccc2-3)cc1", "values": [
      {"measurement": "IC50", "value": 0.79, "unit": "µM"}
    ]},
    {"molecule": "Cn1ncc2c1C(=O)c1ccccc1-2", "values": [
      {"measurement": "IC50", "value": 8.8, "unit": "µM"}
    ]},
    {"molecule": "Cc1nn(-c2ccccc2)c2c1-c1ccccc1C2=O", "values": [
      {"measurement": "IC50", "value": 4.8, "unit": "µM"}
    ]},
    {"molecule": "O=C1c2ccccc2-c2cnn(-c3ccc(C(F)(F)F)cc3)c21", "values": [
      {"measurement": "IC50", "value": 23, "unit": "µM"}
    ]},
    {"molecule": "O=C1c2ccccc2-c2cnn(-c3ccccc3)c21", "values": [
      {"measurement": "IC50", "value": 1.4, "unit": "µM"}
    ]},
    {"molecule": "O=C1c2ccccc2-c2cn[nH]c21", "values": [
      {"measurement": "IC50", "value": "> 30", "unit": "µM"}
    ]},
    {"molecule": "O=C1c2ccccc2-c2cnn(-c3ccc(O)cc3)c21", "values": [
      {"measurement": "IC50", "value": 0.39, "unit": "µM"}
    ]}
  ]
}
